Assay results from ChEMBL document CHEMBL4321839, “Structure-activity relationships (SAR) of triazine derivatives: Promising antimicrobial agents” (Eur J Med Chem, 2020).
Values after ≈ are worked out from the molar mass of the structure shown. Each block holds one molecule with its values, some of them ahead of it.

Key:
Staphylococcus aureus [1] = test: Antimicrobial activity against methicillin-resistant Staphylococcus aureus MW2 assessed as reduction in microbial growth after 18 hrs by broth microdilution method; type: functional; conditions: MW2, 18 h
Enterococcus faecium [2] = test: Antimicrobial activity against Enterococcus faecium ATCC E007 assessed as reduction in microbial growth after 18 hrs by broth microdilution method; type: functional; conditions: ATCC E007, 18 h
Staphylococcus aureus [3] = test: Antimicrobial activity against Staphylococcus aureus assessed as zone of inhibition at 1000 to 10000 ppm after 48 hrs; type: functional
Helicobacter pylori = test: Antimicrobial activity against Helicobacter pylori assessed as zone of inhibition; type: functional
Escherichia coli [4] = test: Antimicrobial activity against Escherichia coli after 24 hrs by agar well diffusion assay; type: functional
Staphylococcus aureus [5] = test: Antimicrobial activity against methicillin-resistant Staphylococcus aureus CCARM 3167 assessed as reduction in microbial growth by serial dilution method; type: functional
Staphylococcus aureus [6] = test: Antimicrobial activity against methicillin-resistant Staphylococcus aureus CCARM 3506 assessed as reduction in microbial growth by serial dilution method; type: functional
Staphylococcus aureus [7] = test: Antimicrobial activity against quinolone-resistant Staphylococcus aureus CCARM 3505 assessed as reduction in microbial growth by serial dilution method; type: functional
Staphylococcus aureus [8] = test: Antimicrobial activity against quinolone-resistant Staphylococcus aureus CCARM 3519 assessed as reduction in microbial growth by serial dilution method; type: functional
HepG2 = test: Cytotoxicity against human HepG2 cells; type: cell-based
Proteus mirabilis = test: Antimicrobial activity against Proteus mirabilis assessed as zone of inhibition after 18 hrs by disk diffusion method; type: functional
Escherichia coli [9] = test: Antimicrobial activity against Escherichia coli assessed as zone of inhibition after 18 hrs by disk diffusion method; type: functional
Staphylococcus aureus [10] = test: Antimicrobial activity against Staphylococcus aureus NCIM-2079 assessed as reduction in microbial growth after 24 hrs by CLSI based broth dilution method; type: functional; conditions: NCIM-2079, 24 h
Proteus vulgaris = test: Antimicrobial activity against Proteus vulgaris NCIM-2027 assessed as reduction in microbial growth after 24 hrs by CLSI based broth dilution method; type: functional; conditions: NCIM-2027, 24 h
Bacillus cereus [11] = test: Antimicrobial activity against Bacillus cereus NCIM-2156 assessed as reduction in microbial growth after 24 hrs by CLSI based broth dilution method; type: functional; conditions: NCIM-2156, 24 h
Bacillus subtilis = test: Antimicrobial activity against Bacillus subtilis NCIM-2063 assessed as reduction in microbial growth after 24 hrs by CLSI based broth dilution method; type: functional; conditions: NCIM-2063, 24 h
Escherichia coli [12] = test: Antimicrobial activity against Escherichia coli NCIM-2065 assessed as reduction in microbial growth after 24 hrs by CLSI based broth dilution method; type: functional; conditions: NCIM-2065, 24 h
Bacillus cereus [13] = test: Antimicrobial activity against Bacillus cereus MTCC 430 assessed as reduction in microbial growth after 24 hrs by broth dilution method; type: functional; conditions: MTCC 430, 24 h
Candida albicans = test: Antifungal activity against Candida albicans MTCC 183 assessed as reduction in microbial growth after 48 hrs by broth dilution method; type: functional; conditions: MTCC 183, 48 h
Pseudomonas aeruginosa [14] = test: Antimicrobial activity against Pseudomonas aeruginosa MTCC 741 assessed as reduction in microbial growth after 24 hrs by broth dilution method; type: functional; conditions: MTCC 741, 24 h
Aspergillus niger = test: Antifungal activity against Aspergillus niger MTCC 282 assessed as reduction in microbial growth after 48 hrs by broth dilution method; type: functional; conditions: MTCC 282, 48 h
Lacticaseibacillus casei = test: Antibacterial activity against Lactobacillus casei NCIM-2651 assessed as reduction in microbial growth incubated for 24 hrs by broth dilution method; type: functional; conditions: NCIM-2651, 24 h
Bacillus cereus [15] = test: Antibacterial activity against Bacillus cereus NCIM-2458 assessed as reduction in microbial growth incubated for 24 hrs by broth dilution method; type: functional; conditions: NCIM-2458, 24 h
Aspergillus clavatus = test: Antifungal activity against Aspergillus clavatus MTCC 1323 assessed as reduction in microbial growth after 48 hrs by broth dilution method; type: functional; conditions: MTCC 1323, 48 h
Pseudomonas aeruginosa [16] = test: Antimicrobial activity against Pseudomonas aeruginosa […] assessed as zone of inhibition at 10 mg/ml by Kirby-Bauer disk diffusion method; type: functional; conditions: read-out: IZ
Micrococcus luteus = test: Antimicrobial activity against Micrococcus luteus ATCC 10240 assessed as zone of inhibition at 10 mg/ml by Kirby-Bauer disk diffusion method; type: functional; conditions: read-out: IZ
Staphylococcus aureus [17] = test: Antimicrobial activity against Staphylococcus aureus MTCC 96 assessed as reduction in microbial growth after 24 hrs by broth dilution method; type: functional; conditions: MTCC 96, 24 h
Staphylococcus aureus [18] = test: Antimicrobial activity against methicillin-resistant Staphylococcus aureus CCARM 3089 assessed as reduction in microbial growth incubated for 18 to 24 hrs by two-fold serial dilution method; type: functional
Staphylococcus aureus [19] = test: Antimicrobial activity against methicillin-resistant Staphylococcus aureus CCARM 3090 assessed as reduction in microbial growth incubated for 18 to 24 hrs by two-fold serial dilution method; type: functional
Staphylococcus aureus [20] = test: Antimicrobial activity against methicillin-resistant Staphylococcus aureus CCARM 3095 assessed as reduction in microbial growth incubated for 18 to 24 hrs by two-fold serial dilution method; type: functional
Pseudomonas aeruginosa [21] = test: Antimicrobial activity against multi drug-resistant Pseudomonas aeruginosa CCARM 2095 assessed as reduction in microbial growth incubated for 18 to 24 hrs by two-fold serial dilution method; type: functional
Pseudomonas aeruginosa [22] = test: Antimicrobial activity against multi drug-resistant Pseudomonas aeruginosa CCARM 2109 assessed as reduction in microbial growth incubated for 18 to 24 hrs by two-fold serial dilution method; type: functional
Enterococcus faecium [23] = test: Antimicrobial activity against vancomycin-resistant Enterococcus faecium ATCC 51559 assessed as reduction in microbial growth incubated for 18 to 24 hrs by two-fold serial dilution method; type: functional

SMILES: CC(C)(C)Nc1nc(NN)nc(NC(C)(C)C)n1
MIC (Staphylococcus aureus [1]): 8 µg/mL
MIC (Enterococcus faecium [2]): 8 µg/mL

SMILES: Cc1c(C(=O)NNc2ccccc2)nnc2c3c(-c4ccccc4)c(-c4ccccc4)nnc3nn12
inhibition zone (IZ) (Staphylococcus aureus [3]): 4 mm

SMILES: CC(=O)c1nnc2c3c(-c4ccccc4)c(-c4ccccc4)nnc3nn2c1C
inhibition zone (IZ) (Staphylococcus aureus [3]): 44 mm

SMILES: NC1=NC(c2ccc3cc(OCc4ccc(Cl)cc4Cl)ccc3c2)N=C(N2CCOCC2)N1 (stereo not given)
MIC (Staphylococcus aureus [5]): 2.1 µM
MIC (Staphylococcus aureus [6]): 2.1 µM
MIC (Staphylococcus aureus [7]): 2.1 µM
MIC (Staphylococcus aureus [8]): 2.1 µM
IC50 (HepG2): 34.3 µM

SMILES: O=C(CN/N=C/Cc1ccccn1)CSc1nnc2c3ccccc3n(CC(=O)N/N=C/c3ccccn3)c2n1
inhibition zone (IZ) (Proteus mirabilis): 24 mm
inhibition zone (IZ) (Escherichia coli [9]): 24 mm

SMILES: CCOc1ccc(/C=N/NC(=O)Cn2c3ccccc3c3nnc(SCC(=O)CN/N=C/Cc4ccc(OCC)cc4)nc32)cc1
inhibition zone (IZ) (Proteus mirabilis): 22 mm
inhibition zone (IZ) (Escherichia coli [9]): 22 mm

SMILES: COc1nc(Sc2cccc(F)c2)nc(-c2ccc(C#N)cc2)n1
MIC (Pseudomonas aeruginosa [14]): 3.12 µg/mL
MIC (Aspergillus niger): 3.12 µg/mL

SMILES: Cc1cc(C)n(-c2nc(NCc3ccccc3)nc(N3CCCCC3)n2)n1
zone of inhibition at 10000 µg/mL (Pseudomonas aeruginosa [16]): 19 mm
zone of inhibition at 10000 µg/mL (Micrococcus luteus): 22 mm

SMILES: N=C(N)NCCCN(CCCNC(=N)N)c1nc(NCCC(c2ccccc2)c2ccccc2)nc(NCCC(c2ccccc2)c2ccccc2)n1
MIC (Staphylococcus aureus [18]): 2 µM
MIC (Staphylococcus aureus [19]): 2 µM
MIC (Staphylococcus aureus [20]): 2 µM
MIC (Pseudomonas aeruginosa [21]): 4 µM
MIC (Pseudomonas aeruginosa [22]): 4 µM
MIC (Enterococcus faecium [23]): 4 µM

SMILES: N=C(N)NCCCN(CCCNC(=N)N)c1nc(NCc2cccc3ccccc23)nc(NCc2cccc3ccccc23)n1
MIC (Staphylococcus aureus [18]): 2 µM
MIC (Staphylococcus aureus [19]): 2 µM
MIC (Staphylococcus aureus [20]): 2 µM
MIC (Pseudomonas aeruginosa [21]): 8 µM
MIC (Pseudomonas aeruginosa [22]): 8 µM
MIC (Enterococcus faecium [23]): 2 µM

Second part, the molecule after the results:

MIC (Helicobacter pylori): 25 µg/mL (≈ 57.2 µM)
SMILES: Nc1nc(-n2c(-c3ccc([N+](=O)[O-])cc3)nc3ccccc3c2=O)nnc1-c1ccccc1

MIC (Escherichia coli [4]): 50 µg/mL (≈ 75.5 µM)
SMILES: Clc1nc2nc(n1)Oc1ccc3ccccc3c1Cc1c(ccc3ccccc13)Oc1nc(Cl)nc(n1)OCc1cccc(n1)CO2

MIC (Staphylococcus aureus [10]): 1.95 to 15.6 µg/mL
MIC (Proteus vulgaris): 1.95 to 15.6 µg/mL
MIC (Bacillus cereus [11]): 1.95 to 15.6 µg/mL
MIC (Bacillus subtilis): 1.95 to 15.6 µg/mL
MIC (Escherichia coli [12]): 1.95 to 15.6 µg/mL
SMILES: O=C1CSC(c2ccc([N+](=O)[O-])cc2)N1c1nc(Nc2ccc([N+](=O)[O-])cc2)nc(Nc2ccc([N+](=O)[O-])cc2)n1 (stereo not given)

MIC (Bacillus cereus [13]): 6.25 µg/mL
MIC (Candida albicans): 3.12 µg/mL
SMILES: COc1nc(Sc2cccc(Cl)c2)nc(-c2ccc(C#N)cc2)n1

MIC (Lacticaseibacillus casei): 3.12 µg/mL
MIC (Bacillus cereus [15]): 3.12 µg/mL
SMILES: Nc1nc(Nc2nc(-c3ccc(Cl)c(Cl)c3)cs2)nc(Sc2ccccc2)n1

MIC (Aspergillus clavatus): 3.12 µg/mL
SMILES: COc1nc(Sc2ccc(Cl)cc2)nc(-c2ccc(C#N)cc2)n1

MIC (Staphylococcus aureus [10]): 1.95 to 15.6 µg/mL
MIC (Proteus vulgaris): 1.95 to 15.6 µg/mL
MIC (Bacillus cereus [11]): 1.95 to 15.6 µg/mL
MIC (Bacillus subtilis): 1.95 to 15.6 µg/mL
MIC (Escherichia coli [12]): 1.95 to 15.6 µg/mL
SMILES: O=C1CSC(c2ccccc2[N+](=O)[O-])N1c1nc(Nc2ccccc2[N+](=O)[O-])nc(Nc2ccccc2[N+](=O)[O-])n1 (stereo not given)

MIC (Staphylococcus aureus [17]): 3.12 µg/mL
SMILES: COc1nc(Sc2ccc(F)cc2)nc(-c2ccc(C#N)cc2)n1

MIC (Escherichia coli [4]): 50 µg/mL (≈ 84.7 µM)
SMILES: CC1(C)c2ccccc2Oc2nc(Cl)nc(n2)OCc2cccc(n2)COc2nc(Cl)nc(n2)Oc2ccccc21

MIC (Lacticaseibacillus casei): 3.12 µg/mL
MIC (Bacillus cereus [15]): 3.12 µg/mL
SMILES: Nc1nc(Nc2ccccc2)nc(Nc2nc(-c3ccc(Cl)c(Cl)c3)cs2)n1
